Measurements: patent US9845297B2, “Antimicrobial compounds and methods of making and using the same” (Melinta Therapeutics, Inc., priority 2009, dated 2017)

These molecules were tested on Eschericia coli strain ATCC25922 (assay: standard microdilution assay to determine minimum inhibitory concentrations (MICs)). Conditions: Escherichia coli, ATCC25922, Eschericia coli strain ATCC25922, standard microdilution assay; read-out: E. coli ATCC25922 MIC.
Assay type: cell-based
Procedure: Minimum inhibitory concentrations (MICs) are determined by the microdilution method, typically in a final volume of 100 microliters, according to protocols outlined by The Clinical and Laboratory Standards Institute [CLSI; formerly the National Committee for Clinical Laboratory Standards (NCCLS)]. See CLSI: Methods for dilution antimicrobial susceptibility tests for bacteria that grow aerobically; approved standard-fifth edition. Wayne, Pa.: NCCLS; 2000. The assays can be also be performed in microtiter trays according to conventional methodologies as published by the CLSI. See CLSI. Methods for Dilution Antimicrobial Susceptibility Tests for Bacteria That Grow Aerobically; Approved Standard-Seventh Edition. CLSI Document M7-A7 [ISBN 1-56238-587-9] CLSI, 940 West Valley Road, Suite 1400, Wayne Pa. 19087-1898 USA, 2006).
The compounds of the present invention were tested for antimicrobial activity. The compounds were run against Eschericia coli strain ATCC25922 using a standard microdilution assay to determine minimum inhibitory concentrations (MICs). […] A “N/A” means that data is unavailable. It will be recognized by one skilled in the art that the compounds can be assessed against other bacterial organisms and that the presentation of data for activity against Eschericia coli is illustrative and in no way is intended to limit the scope of the present invention. The compounds of the present invention can be assayed against a range of other microorganisms depending upon the performance activity desired to be gathered. Furthermore, the “+”, “−”, and “N/A” representation and the selection of a cutoff value of 16 micrograms/ml is also illustrative and in no way is intended to limit the scope of the present invention.

SMILES	MIC [µg/mL]
NCCCN(CCCN)Cc1ccc(-c2c[nH]c(NC(=O)Nc3ccccc3OC(F)(F)F)nc2=O)cc1F [Compound 308]	< 16
NCCCN(CCCN)Cc1ccc(-c2c[nH]c(NC(=O)Nc3cc(F)c(F)cc3F)nc2=O)cc1F [Compound 311]	> 16
NCCCN(Cc1ccc(-c2c[nH]c(NC(=O)Nc3ccccc3OC(F)(F)F)nc2=O)cc1)CC1CC1 [Compound 312]	< 16
O=C(Nc1nc(=O)c(-c2ccc(CNCc3ncc[nH]3)cc2)c[nH]1)Nc1cc(F)c(F)cc1F [Compound 313]	> 16
O=C(Nc1nc(=O)c(-c2ccc(CNCc3ncc[nH]3)cc2)c[nH]1)Nc1ccccc1OC(F)(F)F [Compound 314]	> 16
O=C(O)CCNCc1ccc(-c2c[nH]c(NC(=O)Nc3cc(F)c(F)cc3F)nc2=O)cc1 [Compound 315]	> 16
CC(C)=CCNCc1ccc(-c2c[nH]c(NC(=O)Nc3ccccc3OC(F)(F)F)nc2=O)cc1 [Compound 316]	> 16
CC(C)=CCNCc1ccc(-c2c[nH]c(NC(=O)Nc3cc(F)c(F)cc3F)nc2=O)cc1 [Compound 317]	> 16
O=C(Nc1nc(=O)c(-c2ccc(CNCc3ccncc3)cc2)c[nH]1)Nc1ccccc1OC(F)(F)F [Compound 319]	> 16
NCCCN(CCC(=O)O)Cc1ccc(-c2c[nH]c(NC(=O)Nc3cc(F)c(F)cc3F)nc2=O)cc1 [Compound 320]	> 16
NCCCN(CCC(=O)O)Cc1ccc(-c2c[nH]c(NC(=O)Nc3ccccc3OC(F)(F)F)nc2=O)cc1 [Compound 321]	> 16
O=C(Nc1nc(=O)c(-c2ccc(CNCCc3ccncc3)cc2)c[nH]1)Nc1cc(F)c(F)cc1F [Compound 322]	> 16
O=C(Nc1nc(=O)c(-c2ccc(CNCCc3ccncc3)cc2)c[nH]1)Nc1ccccc1OC(F)(F)F [Compound 323]	> 16
NCCCN(CCCO)Cc1ccc(-c2c[nH]c(NC(=O)Nc3ccccc3OC(F)(F)F)nc2=O)cc1 [Compound 324]	< 16
NCCCN(Cc1ccc(-c2c[nH]c(NC(=O)Nc3cc(F)c(F)cc3F)nc2=O)cc1)Cc1ncc[nH]1 [Compound 325]	> 16
NCCCN(Cc1ccc(-c2c[nH]c(NC(=O)Nc3ccccc3OC(F)(F)F)nc2=O)cc1)Cc1ncc[nH]1 [Compound 326]	> 16
O=C(O)CCCNCc1ccc(-c2c[nH]c(NC(=O)Nc3cc(F)c(F)cc3F)nc2=O)cc1 [Compound 327]	> 16
O=C(O)CCCNCc1ccc(-c2c[nH]c(NC(=O)Nc3ccccc3OC(F)(F)F)nc2=O)cc1 [Compound 328]	> 16
O=C(Nc1nc(=O)c(-c2ccc(CNCc3ccncc3)cc2)c[nH]1)Nc1cc(F)c(F)cc1F [Compound 329]	> 16
O=C(Nc1nc(=O)c(-c2ccc(CNCc3nccs3)cc2)c[nH]1)Nc1cc(F)c(F)cc1F [Compound 330]	> 16
NCCCN(CCCO)Cc1ccc(-c2c[nH]c(NC(=O)Nc3cc(F)c(F)cc3F)nc2=O)cc1 [Compound 331]	> 16
N=C(N)NCCCNCc1ccc(-c2c[nH]c(NC(=O)Nc3ccccc3OC(F)(F)F)nc2=O)cc1 [Compound 332]	< 16
NCCCNCc1ccc(-c2c[nH]c(Nc3nc4ccccc4[nH]3)nc2=O)cc1 [Compound 334]	< 16

SMILES	MIC [µg/mL]
Cn1ccnc1CN(CCCN)Cc1ccc(-c2c[nH]c(NC(=O)Nc3cc(F)c(F)cc3F)nc2=O)cc1 [Compound 336]	> 16
NCCCN(Cc1ccncc1)Cc1ccc(-c2c[nH]c(NC(=O)Nc3cc(F)c(F)cc3F)nc2=O)cc1 [Compound 337]	< 16
NCCCN(Cc1ccncc1)Cc1ccc(-c2c[nH]c(NC(=O)Nc3ccccc3OC(F)(F)F)nc2=O)cc1 [Compound 338]	< 16
NCCCN(Cc1ccc(-c2c[nH]c(NC(=O)Nc3cc(F)c(F)cc3F)nc2=O)cc1)Cc1nccs1 [Compound 339]	> 16
NCCCN(Cc1ccc(-c2c[nH]c(NC(=O)Nc3ccccc3OC(F)(F)F)nc2=O)cc1)Cc1nccs1 [Compound 340]	> 16
O=C(Nc1nc(=O)c(-c2ccc(CNCCCCO)cc2)c[nH]1)Nc1cc(F)c(F)cc1F [Compound 341]	> 16
O=C(Nc1nc(=O)c(-c2ccc(CNCCCCO)cc2)c[nH]1)Nc1ccccc1OC(F)(F)F [Compound 342]	> 16
NCCCN(Cc1ccc(-c2c[nH]c(NC(=O)Nc3cc(F)c(F)cc3F)nc2=O)cc1)CC1CC1 [Compound 344]	< 16
Cn1ccnc1CN(CCCN)Cc1ccc(-c2c[nH]c(NC(=O)Nc3ccccc3OC(F)(F)F)nc2=O)cc1 [Compound 345]	> 16
CN(CCCNCc1ccc(-c2c[nH]c(NC(=O)Nc3ccccc3OC(F)(F)F)nc2=O)cc1)C(=N)N [Compound 346]	< 16
NCCCN(CCc1ccncc1)Cc1ccc(-c2c[nH]c(NC(=O)Nc3ccccc3OC(F)(F)F)nc2=O)cc1 [Compound 347]	> 16
N=C(N)NCCCN(CCCN)Cc1ccc(-c2c[nH]c(NC(=O)Nc3cc(F)c(F)cc3F)nc2=O)cc1 [Compound 348]	> 16
N=C(N)NCCCN(CCCN)Cc1ccc(-c2c[nH]c(NC(=O)Nc3ccccc3OC(F)(F)F)nc2=O)cc1 [Compound 349]	< 16
N=C(N)NCCCNCc1ccc(-c2c[nH]c(NC(=O)Nc3cc(F)c(F)cc3F)nc2=O)cc1 [Compound 350]	< 16
NCCCN(CCCN)Cc1ccc(-c2c[nH]c(Nc3nc4ccccc4[nH]3)nc2=O)cc1F [Compound 351]	< 16
CN(CCCNCc1ccc(-c2c[nH]c(NC(=O)Nc3cc(F)c(F)cc3F)nc2=O)cc1)C(=N)N [Compound 353]	> 16
NCCCN(CCc1ccncc1)Cc1ccc(-c2c[nH]c(NC(=O)Nc3cc(F)c(F)cc3F)nc2=O)cc1 [Compound 354]	> 16
NCCCN(CCCCO)Cc1ccc(-c2c[nH]c(NC(=O)Nc3ccccc3OC(F)(F)F)nc2=O)cc1 [Compound 355]	< 16
NCCCN(CCCN)Cc1ccc(-c2c[nH]c(Nc3nc4cc(F)c(F)cc4o3)nc2=O)cc1F [Compound 356]	< 16
NCCCN(CCCN)Cc1ccc(-c2c[nH]c(Nc3nc4cc(C(F)(F)F)ccc4s3)nc2=O)cc1F [Compound 357]	> 16
NCCCN(CCCC(=O)O)Cc1ccc(-c2c[nH]c(NC(=O)Nc3cc(F)c(F)cc3F)nc2=O)cc1 [Compound 358]	> 16
NCCCN(CCCC(=O)O)Cc1ccc(-c2c[nH]c(NC(=O)Nc3ccccc3OC(F)(F)F)nc2=O)cc1 [Compound 359]	> 16

The remaining lines, values ahead:

MIC [µg/mL]	SMILES
< 16	COc1ccc2nc(Nc3nc(=O)c(-c4ccc(CN(CCCN)CCCN)c(F)c4)c[nH]3)[nH]c2c1 [Compound 361]
> 16	NCCCN(CCCN)Cc1ccc(-c2c[nH]c(Nc3nc4ccccc4o3)nc2=O)cc1F [Compound 363]
> 16	O=C(Nc1nc(=O)c(-c2ccc(CNCCCc3cccnc3)cc2)c[nH]1)Nc1ccccc1OC(F)(F)F [Compound 364]
< 16	CN(CCCN(CCCN)Cc1ccc(-c2c[nH]c(NC(=O)Nc3ccccc3OC(F)(F)F)nc2=O)cc1)C(=N)N [Compound 365]
> 16	CN(CCCN(CCCN)Cc1ccc(-c2c[nH]c(NC(=O)Nc3cc(F)c(F)cc3F)nc2=O)cc1)C(=N)N [Compound 366]
> 16	O=C(Nc1nc(=O)c(CCN2CCNCC2)c[nH]1)Nc1ccccc1OC(F)(F)F [Compound 368]
> 16	NCCCN1CCN(CCc2c[nH]c(NC(=O)Nc3ccccc3OC(F)(F)F)nc2=O)CC1 [Compound 369]
> 16	COc1cc2nc(Nc3nc(=O)c(-c4ccc(CN(CCCN)CCCN)c(F)c4)c[nH]3)[nH]c2cc1OC [Compound 370]
> 16	NCCCN(CCCc1cccnc1)Cc1ccc(-c2c[nH]c(NC(=O)Nc3ccccc3OC(F)(F)F)nc2=O)cc1 [Compound 372]
> 16	O=C(Nc1nc(=O)c(-c2ccc(CNCCCc3cccnc3)cc2)c[nH]1)Nc1cc(F)c(F)cc1F [Compound 373]
> 16	NC(=O)NCCCNCc1ccc(-c2c[nH]c(NC(=O)Nc3ccccc3OC(F)(F)F)nc2=O)cc1 [Compound 374]
> 16	NCCCNCc1ccc(-c2c[nH]c(Nc3ccccc3C(F)(F)F)nc2=O)cc1C(F)(F)F [Compound 376]
> 16	N[C@H]1CCN(CCc2c[nH]c(NC(=O)Nc3ccccc3OC(F)(F)F)nc2=O)C1 [Compound 381]
< 16	NCCCNCc1ccc(-c2c[nH]c(Nc3ccc(C(F)(F)F)cc3)nc2=O)cc1C(F)(F)F [Compound 382]
> 16	NCCCN(CCCN)Cc1ccc(-c2c[nH]c(Nc3nc4ccccc4s3)nc2=O)cc1F [Compound 383]
> 16	NCCCN[C@@H]1CCN(CCc2c[nH]c(NC(=O)Nc3ccccc3OC(F)(F)F)nc2=O)C1 [Compound 384]
> 16	NCCCN[C@@H]1CCN(CCc2c[nH]c(NC(=O)Nc3cccc(Cl)c3Cl)nc2=O)C1 [Compound 385]
> 16	N#Cc1ccc(NC(=O)Nc2nc(=O)c(-c3ccc(CNCCCN)c(F)c3)c[nH]2)cc1 [Compound 386]
> 16	NCCCNCc1ccc(-c2c[nH]c(NC(=O)Nc3cc(Cl)cc(Cl)c3)nc2=O)cc1F [Compound 387]
> 16	NCCCNCc1ccc(-c2c[nH]c(NC(=O)Nc3cc(Cl)c(Cl)cc3Cl)nc2=O)cc1F [Compound 388]
